Experimental findings from ChEMBL document CHEMBL4689842, “EUbOPEN Chemogenomics Library wave 1” (2021) are described below.

SMILES strings stand for the structures.

Common to all, as to type: toxicity, cell-based
The subject of data set [1] is U2OS. Nature of the data set: Incucyte cell viability with U2OS. Conditions: human, 10 µM, compound concentration 10 uM.
In data set [2] the test system is HEK-293T. As to the kind of experiment: Incucyte cell viability with HEK293T. Conditions: human, 10 µM, compound concentration 10 uM.
Data set [3] has as its system Fibroblast. As to the kind of experiment: Incucyte cell viability with human fibroblast. To be noted: 10 µM, compound concentration 10 uM.
Where [4] appears, read: 0 h, replicate number 1, timepoint 0 hours.
Setting [5] is: 6 h, replicate number 2, timepoint 6 hours.
The mark [6] stands for this setting: 12 h, replicate number 1, timepoint 12 hours.
The mark [7] stands for this setting: 18 h, replicate number 1, timepoint 18 hours.
Setting [8] is: 24 h, replicate number 1, timepoint 24 hours.
Setting [9] is: 0 h, replicate number 2, timepoint 0 hours.
The mark [10] stands for this setting: 6 h, replicate number 1, timepoint 6 hours.
Setting [11] is: 24 h, replicate number 2, timepoint 24 hours.
Setting [12] is: 12 h, replicate number 2, timepoint 12 hours.
Setting [13] is: 18 h, replicate number 2, timepoint 18 hours.
Note: filed as whole numbers so only -1 and 0 and 1 occur.

In the case of `CC(C)(C)NCC(O)COc1cccc2[nH]c(=O)[nH]c12.Cl` (stereo not given), the “Growth Rate” value in data set [1] (setting [4]) is 0; in data set [1] (setting [5]), 0; in data set [1] (setting [6]) it was 1; in data set [1] (setting [7]), 1; in data set [1] (setting [8]), 1; in data set [2] (setting [4]) it was 1. The “Growth Rate” value was 0 in data set [2] (setting [9]); 0 in data set [2] (setting [10]); 0 in data set [2] (setting [6]); 1 in data set [2] (setting [7]); 1 in data set [2] (setting [8]); 0 in data set [2] (setting [11]). In addition, the “Growth Rate” value in data set [3] (setting [4]) is 0; in data set [3] (setting [5]), 0; in data set [3] (setting [6]) it was 1; in data set [3] (setting [12]), 0; in data set [3] (setting [7]), 1; in data set [3] (setting [8]), 1.

Take `CSc1ccc(C(=O)N[C@@H]2CCCC[C@@H]2NC(=O)CNC(=O)c2cc(C(F)(F)F)ccc2NC(=O)NC(C)C)cc1`: the “Growth Rate” value was 0 in data set [1] (setting [4]); 0 in data set [1] (setting [5]); 1 in data set [1] (setting [6]); 0 in data set [1] (setting [12]); 0 in data set [1] (setting [7]); 1 in data set [1] (setting [13]). For the same molecule, the “Growth Rate” value in data set [1] (setting [8]) was found to be 0; in data set [1] (setting [11]), 1; in data set [2] (setting [4]), 1; in data set [2] (setting [9]) it was 0; in data set [2] (setting [10]), 0; in data set [2] (setting [5]), 1. Further, the “Growth Rate” value worked out at 0 in data set [2] (setting [6]); 0 in data set [2] (setting [7]); 0 in data set [2] (setting [8]); 0 in data set [3] (setting [4]); 1 in data set [3] (setting [10]); 1 in data set [3] (setting [6]). The “Growth Rate” value in data set [3] (setting [7]) was 1; in data set [3] (setting [8]), 0; in data set [3] (setting [11]), 1.

As to `Cc1cc(Nc2nccc(C)n2)cc(-c2cnc([C@@]3(O)CC[C@H](C(=O)O)C(C)(C)C3)s2)c1` [MRL-SYKi], the “Growth Rate” value worked out at 0 in data set [1] (setting [4]); 0 in data set [1] (setting [10]); 0 in data set [1] (setting [6]); 0 in data set [1] (setting [7]); 1 in data set [1] (setting [13]); 0 in data set [1] (setting [8]). The “Growth Rate” value in data set [2] (setting [10]) worked out at 0; in data set [2] (setting [6]), 0; in data set [2] (setting [7]), 0; in data set [2] (setting [8]), 0; in data set [3] (setting [9]), 1; in data set [3] (setting [10]) it was 0. For the same molecule, the “Growth Rate” value in data set [3] (setting [6]) is 0; in data set [3] (setting [7]), 0; in data set [3] (setting [8]), 1; in data set [3] (setting [11]), 0.

For the molecule `O=c1nc(-c2ccccn2)sc2ccccc12` [BTZO-1], the “Growth Rate” value in data set [1] (setting [4]) was 0; in data set [1] (setting [10]) it was 1; in data set [1] (setting [6]), 0; in data set [1] (setting [12]) it was 1; in data set [1] (setting [7]), 1; in data set [1] (setting [13]) it was 0. For the same molecule, the “Growth Rate” value in data set [1] (setting [8]) is recorded as 1; in data set [1] (setting [11]) it was 0; in data set [2] (setting [4]), 0; in data set [2] (setting [9]) it was 1; in data set [2] (setting [10]), 1; in data set [2] (setting [6]) it was 1. The “Growth Rate” value came to 1 in data set [2] (setting [7]); 1 in data set [2] (setting [8]); 1 in data set [3] (setting [4]); 0 in data set [3] (setting [9]); 0 in data set [3] (setting [10]); 1 in data set [3] (setting [5]). Also, the “Growth Rate” value in data set [3] (setting [6]) was found to be 0; in data set [3] (setting [12]), 1; in data set [3] (setting [7]), 0; in data set [3] (setting [13]) it was 1; in data set [3] (setting [8]), 0; in data set [3] (setting [11]), 1.

For the molecule `N#Cc1ccc(NC(=O)Nc2ccccc2Br)c2nn[nH]c12`, the “Growth Rate” value in data set [1] (setting [4]) is on record as 0; in data set [1] (setting [9]), 1; in data set [1] (setting [5]), 1; in data set [1] (setting [6]), 1; in data set [1] (setting [7]), 1; in data set [1] (setting [8]), 1. Moreover, the “Growth Rate” value was determined as 0 in data set [2] (setting [4]); 1 in data set [2] (setting [5]); 1 in data set [2] (setting [6]); 1 in data set [2] (setting [7]); 1 in data set [2] (setting [8]); 0 in data set [3] (setting [4]). For the same molecule, the “Growth Rate” value in data set [3] (setting [9]), in data set [3] (setting [10]), in data set [3] (setting [6]), in data set [3] (setting [7]) and in data set [3] (setting [8]) was 1 in each case.

Take `CCn1cc(-c2cccc(C(F)(F)F)c2)c2sc(C(=N)NC3CCS(=O)(=O)CC3)cc2c1=O`: the “Growth Rate” value in data set [1] (setting [9]) was determined as 0; in data set [1] (setting [10]), 1; in data set [1] (setting [6]), 0; in data set [1] (setting [7]) it was 0; in data set [1] (setting [13]), 1; in data set [1] (setting [8]), 0. Also, the “Growth Rate” value amounted to 1 in data set [1] (setting [11]); 0 in data set [2] (setting [10]); 0 in data set [2] (setting [6]); 0 in data set [2] (setting [7]); 0 in data set [2] (setting [8]); 0 in data set [3] (setting [10]). Besides, the “Growth Rate” value came to 0 in data set [3] (setting [6]), 0 in data set [3] (setting [7]), 0 in data set [3] (setting [8]) and 1 in data set [3] (setting [11]).

Consider `CC(=O)C1=C(C)N(c2cccc(C(F)(F)F)c2)C(=O)N[C@H]1c1ccc(C#N)nc1` [BAY-677], for which the “Growth Rate” value in data set [1] (setting [4]) is listed as 0; in data set [1] (setting [9]), 1; in data set [1] (setting [10]), 1; in data set [1] (setting [5]), 0; in data set [1] (setting [6]), 1; in data set [1] (setting [12]) it was 0. Also, the “Growth Rate” value is listed as 1 in data set [1] (setting [7]); 0 in data set [1] (setting [13]); 0 in data set [1] (setting [8]); 0 in data set [2] (setting [4]); 1 in data set [2] (setting [7]); 1 in data set [2] (setting [8]). For the same molecule, the “Growth Rate” value in data set [3] (setting [4]) was determined as 0; in data set [3] (setting [10]), 0; in data set [3] (setting [5]), 1; in data set [3] (setting [6]), 0; in data set [3] (setting [7]), 0; in data set [3] (setting [8]), 0.

In the case of `COc1cc2c(cc1OCCCN1CCCC1)N=C(N)C21CCC1`, the “Growth Rate” value in data set [1] (setting [4]) was 0; in data set [1] (setting [10]), 1; in data set [1] (setting [6]), 1; in data set [1] (setting [7]) it was 1; in data set [1] (setting [8]), 1; in data set [2] (setting [4]), 0. In addition, the “Growth Rate” value in data set [3] (setting [4]) is reported as 0; in data set [3] (setting [12]) it was 0; in data set [3] (setting [7]), 1; in data set [3] (setting [8]) it was 1.

With `CC(=O)OCC(=O)[C@@]1(O)CC[C@H]2[C@@H]3CCC4=CC(=O)CC[C@]4(C)[C@@]3(F)[C@@H](O)C[C@@]21C` [FLUDROCORTISONE ACETATE], the “Growth Rate” value in data set [1] (setting [4]) amounted to 0; in data set [1] (setting [9]), 1; in data set [1] (setting [5]) it was 0; in data set [1] (setting [12]) it was 1; in data set [1] (setting [7]), 1; in data set [1] (setting [8]), 1. Moreover, the “Growth Rate” value in data set [2] (setting [4]) stood at 0; in data set [2] (setting [10]), 1; in data set [2] (setting [5]) it was 0; in data set [2] (setting [6]), 1; in data set [2] (setting [7]), 1; in data set [2] (setting [8]) it was 1. In addition, the “Growth Rate” value in data set [2] (setting [11]) was found to be 0; in data set [3] (setting [4]) it was 0; in data set [3] (setting [10]), 0; in data set [3] (setting [6]), 1; in data set [3] (setting [7]) it was 1; in data set [3] (setting [8]), 1.

In the case of `O=C(NCc1ncc(C(F)(F)F)cc1Cl)c1ccc2c(c1)C1(CCS(=O)(=O)CC1)[C@H](C1CC1)N2S(=O)(=O)c1ccc(F)cc1` [BAY-784], the “Growth Rate” value in data set [1] (setting [4]) is 0; in data set [1] (setting [10]), 1; in data set [1] (setting [5]), 0; in data set [1] (setting [6]) it was 0; in data set [1] (setting [12]) it was 1; in data set [1] (setting [7]), 0. Moreover, the “Growth Rate” value in data set [1] (setting [8]) was found to be 0; in data set [1] (setting [11]) it was 1; in data set [2] (setting [4]) it was 0; in data set [2] (setting [10]), 1; in data set [2] (setting [6]), 1; in data set [2] (setting [12]), 0. Further, the “Growth Rate” value in data set [2] (setting [7]) is listed as 1; in data set [2] (setting [13]) it was 0; in data set [2] (setting [8]), 1; in data set [2] (setting [11]), 0; in data set [3] (setting [4]), 0; in data set [3] (setting [10]), 0. Also, the “Growth Rate” value in data set [3] (setting [6]), in data set [3] (setting [13]) and in data set [3] (setting [8]) was 1 in each case.

Take `Cc1cc(F)c(C(=O)Nc2cccc(-c3nncn3C(C)C)n2)cc1-n1cnc(C2CC2)c1` [SELONSERTIB]: the “Growth Rate” value came out at 0 in data set [1] (setting [4]); 0 in data set [1] (setting [10]); 0 in data set [1] (setting [6]); 0 in data set [1] (setting [7]); 1 in data set [1] (setting [8]); 0 in data set [1] (setting [11]). Further, the “Growth Rate” value in data set [2] (setting [9]) was 1; in data set [2] (setting [10]), 0; in data set [2] (setting [6]), 0; in data set [2] (setting [7]) it was 0; in data set [2] (setting [8]), 0; in data set [3] (setting [4]), 0. The “Growth Rate” value in data set [3] (setting [6]), in data set [3] (setting [7]) and in data set [3] (setting [8]) was 1 each time.

Take `CN1C(=O)[C@@H](N2CCc3cn(Cc4ccccc4)nc3C2=O)COc2ccccc21` [TP-030-1]: the “Growth Rate” value in data set [1] (setting [9]) is 0; in data set [1] (setting [10]), 1; in data set [1] (setting [6]), 1; in data set [1] (setting [7]), 1; in data set [1] (setting [8]), 1; in data set [2] (setting [4]), 0. Besides, the “Growth Rate” value is reported as 1 in data set [2] (setting [9]); 1 in data set [2] (setting [11]); 1 in data set [3] (setting [9]); 0 in data set [3] (setting [10]); 0 in data set [3] (setting [6]); 0 in data set [3] (setting [7]). The “Growth Rate” value in data set [3] (setting [8]) was 0.

With `CN(C)[C@@H]1CCN(c2cc(-c3ccccc3)nc3ccnn23)C1` [(R)-ZINC-3573], the “Growth Rate” value in data set [1] (setting [5]) amounted to 0; in data set [1] (setting [6]) it was 1; in data set [1] (setting [12]), 0; in data set [1] (setting [7]) it was 0; in data set [1] (setting [13]), 1; in data set [1] (setting [8]), 1. Also, the “Growth Rate” value in data set [2] (setting [4]) turned out to be 0; in data set [2] (setting [10]), 1; in data set [2] (setting [6]), 1; in data set [2] (setting [7]), 1; in data set [2] (setting [8]), 1; in data set [2] (setting [11]) it was 0. Further, the “Growth Rate” value in data set [3] (setting [4]) came to 0; in data set [3] (setting [10]), 0; in data set [3] (setting [6]) it was 1; in data set [3] (setting [7]), 1; in data set [3] (setting [13]), 0; in data set [3] (setting [8]) it was 1.
